Results on five molecules are retold here after US20050118249A1, “Lipid carrier compositions and methods for improved drug retention” (priority 2001, published 2005).

A short description of series [1]: Retention of daunorubicin in liposomes in blood after intravenous injection (time course). To be noted: DSPC/DSPE-PEG2000 (95:5) liposomes; internal citrate 600 mOsm/kg (300 mM) in relation to 300 mOsm/kg (150 mM); i.v., 1, 4, 24 h. In kind it is in vivo, Balb/c mice. The procedure:
DSPC/DSPE-PEG2000 liposomes (95:5 mole ratio) containing 150 or 300 mM citrate (300 or 600 mOsm/kg), pH 4 and DSPC/Cholesterol (55:45 mole ratio) and DSPC/Cholesterol/DSPE-PEG2000 (50:45:5 mole ratio) liposomes containing 150 mM citrate, pH 4 were prepared as described in Example 1. Liposomes were subsequently combined with daunorubicin at a 0.2:1 drug to lipid mole ratio. To facilitate drug loading, the mixtures were incubated at 40° C. for 60 minutes.
The resulting daunorubicin-containing liposomes were administered to Balb/c female mice at a lipid dose of 165 μmoles/kg as detailed above. Blood samples were removed at 1, 4 and 24 hours post administration by cardiac puncture (3 mice per time point). Lipid levels were determined by liquid scintillation counting. Daunorubicin was extracted from plasma samples and quantified as follows: a defined volume of plasma was adjusted to 200 μL with distilled water followed by addition of 600 μL of distilled water, 100 μL of 10% SDS and 100 μL of 10 mM H2SO4. This solution was mixed and 2 mLs of 1:1 isopropanol/chloroform was added followed by vortexing. […] The bottom organic layer was removed and assayed for fluorescence intensity at 500 nm as the excitation wavelength (2.5 nm bandpass) and 550 nm as an emission wavelength (10 nm bandpass) and using an absorbance wavelength of 480 nm.

Series [2] in a line: Retention of daunorubicin in liposomes with varying internal citrate, 4 hours after injection. Format: in vivo, Balb/c mice. The conditions noted are these: DSPC/DSPE-PEG2000 (95:5) liposomes; 100, 150 and 200 mM internal citrate (about 200, 300, 400 mOsm/kg); 4 hours after i.v. injection.
Experimental: DSPC/DSPE-PEG2000 (95:5 mole ratio) liposomes containing the non-exchangeable marker 3H-CHE were prepared as described in Example 1, except that lipid films were hydrated with 100, 150, 200, 250 or 300 mM citrate, pH 4.0 (corresponding to osmolarity levels of about 200, 300, 400, 500 or 600 mOsm/kg, respectively).
Daunorubicin was loaded at a 0.2:1 drug-to-lipid mole ratio with the methods detailed above into each of the five liposomal formulations. The resulting liposomes were administered to female Balb/c mice at a lipid dose of 165 μmoles/kg in a final volume of 200 μL immediately after preparation (within 1-2 hrs). Blood samples were removed 4 hours after administration by cardiac puncture (3 mice per time point). Lipid and daunorubicin levels were determined as described previously and percent initial drug-to-lipid ratio was reported as the mean±SD.
The nature of series [3]: Drug-to-lipid ratio of irinotecan before and after freezing of dual-loaded DSPC/DSPG liposomes. Format: physicochemical. The conditions noted are these: 0-20 mole % cholesterol, with FUDR, 250 mM CuSO4 inside (<500 mOsm/kg), frozen at -20° C. and -70° C. for 24 hours. The procedure: FUDR and irinotecan were loaded into cholesterol-free liposomes containing a low osmolarity internal solution and drug retention and liposome size were measured prior to and after freezing. DSPC/DSPG liposomes containing 0-20 mole % cholesterol, 20 mole % DSPG and passively entrapped FUDR were prepared as described previously and hydrated in 250 mM CuSO4 (<500 mOsm/kg). The MLVs were extruded at 70° C. as detailed above and buffered exchanged into saline and then into 300 mM sucrose, 20 mM Hepes, 30 mM EDTA (SHE), pH 7.4 using a hand-held tangential flow column. The sample was then further exchanged into 300 mM sucrose, 20 mM Hepes, pH 7.4 to remove residual EDTA. The liposomes were subsequently loaded with irinotecan at a drug-to-lipid mole ratio of 0.1:1 by mixing the two solutions at 50° C. for five minutes. The dual-loaded liposomes were then buffered exchanged into HBS using tangential flow to remove any unencapsulated drug.
The influence of freezing on liposome stability was determined by freezing the liposomes at either −20° C. or −70° C. for 24 hours. […] Lipid and FUDR levels were quantified using liquid scintillation and absorbance at 370 nm was used to determine irinotecan concentration. Particle sizing of the liposomes was also determined prior to and after freezing using quasi-elastic light scattering.

Series [4] is described as follows: Retention of vincristine in liposomes in blood after intravenous injection. In kind it is in vivo, Balb/c mice. To be noted: i.v., 1, 4, 24 h. The procedure: Solutions of lipids in chloroform were combined to give a 95:5 molar ratio of DSPC/DSPE-PEG2000 or a 55:45 molar ratio of DSPC/Cholesterol, with trace amounts of ^14C-cholesteryl hexadecyl ether (^14C-CHE). The resulting mixtures were dried under a stream of nitrogen gas and placed in a vacuum pump overnight. The samples were hydrated at 70° C. with either 300 mM citrate, pH 4.0 (about 600 milliosmoles/kg (mOsm/kg)) or 150 mM citrate buffer, pH 4.0 (about 300 mOsm/kg) and passed through an extrusion apparatus (Northern Lipids Inc., Vancouver, BC) ten times with two 100 nm pore size polycarbonate filters at 70° C. Average liposome size was determined by quasi-elastic light scattering using a NICOMP 370 submicron particle sizer operating at a wavelength of 632.8 nm. The resulting liposomes were applied to a Sephadex G50 column equilibrated with HBS (20 mM HEPES, 150 mM NaCl, about 320 mOsm/kg), pH 7.45 to exchange the external liposomal buffer. […]
Vincristine-containing liposomes were administered intravenously to Balb/c mice at a lipid dose of 165 μmoles/kg in a final volume of 200 μL immediately after preparation (within 1-2 hrs). […] Lipid and vincristine levels were quantified by liquid scintillation counting and the values were reported as the mean ± standard deviation (SD).

Series [5] is described as follows: Retention of idarubicin in liposomes with varying internal citrate after intravenous injection. In kind it is in vivo, Balb/c mice. To be noted: DSPC/DSPE-PEG2000 (95:5) liposomes; 300 mM citrate (>500 mOsm/kg) in relation to 100 and 150 mM (<500 mOsm/kg); i.v., 0.5-24 h.
Experimental: DSPC/DSPE-PEG2000 (95:5 mole ratio) liposomes prepared with 100, 150 and 300 mM citrate were also loaded with idarubicin at a drug to lipid mole ratio of 0.25:1. Loading was facilitated by incubating the drug and liposomes at 37° C. for 60 minutes. Liposomes were administered to Balb/c mice as indicated and blood samples were removed by cardiac puncture at 0.5, 1, 2, 4 and 24-hours post administration (3 mice per time point). Idarubicin concentration was quantitated using fluorescence intensity at 485 nm as the excitation wavelength and 535 nm as an emission wavelength and using an absorbance wavelength of 482 nm.
The nature of series [6]: Retention of FUDR in DSPC/DSPG/Chol liposomes in blood after intravenous injection. Format: in vivo, Balb/c mice. The conditions noted are these: DSPC/DSPG/Chol (70:20:10) liposomes; intraliposomal solution of less than 500 mOsm/kg; i.v., 1, 4, 24 h. The procedure: DSPC/DSPG/Chol (70:20:10 mole ratio) were prepared following the methods of Example 1 except that lipid films were hydrated in either saline or Cu(II)gluconate, pH 7.4 containing 25 mg/mL FUDR at 70° C. Cu(II)gluconate was added at either 100 or 200 mM (321 and 676 mOsm/kg, respectively) and the pH was adjusted to 7.4 by addition of triethanolamine (TEA). Trace amounts of 14C-CHE and ^3H-FUDR were used as lipid and drug markers, respectively. The resulting MLVs were extruded at 75° C. through two stacked 100 nm pore size filters for a total of ten passes. Liposomes were buffer exchanged into HBS, pH 7.4 using a hand-held tangential flow column. A total lipid dose of 3.3 μmoles (165 μmoles/kg) was administered to female Balb/c mice in a final volume of 200 μL immediately after preparation (within 1-2 hrs). Blood samples were removed by cardiac puncture 1, 4 and 24-hours post administration (3 mice per time point). Lipid and FUDR levels were determined using liquid scintillation counting and values were reported as the mean±SD.

For `COc1cccc2c1C(=O)c1c(O)c3c(c(O)c1C2=O)C[C@@](O)(C(C)=O)C[C@@H]3O[C@H]1C[C@H](N)[C@H](O)[C@H](C)O1` [daunorubicin], the “daunorubicin retention (percent initial daunorubicin-to-lipid ratio remaining in the blood)” value in series [1] is reported as “compromised”. The “retention of daunorubicin (percent initial daunorubicin-to-lipid ratio remaining in the blood)” value in series [2] is given as “optimal retention”.

Take `CCc1c2c(nc3ccc(OC(=O)N4CCC(N5CCCCC5)CC4)cc13)-c1cc3c(c(=O)n1C2)COC(=O)[C@]3(O)CC` [irinotecan]: in series [3], the “retention of irinotecan after freezing (drug-to-lipid ratio)” value is “effectively retained”. For the molecule `CC[C@]1(O)C[C@H]2CN(CCc3c([nH]c4ccccc34)[C@@](C(=O)OC)(c3cc4c(cc3OC)N(C=O)[C@H]3[C@@](O)(C(=O)OC)[C@H](OC(C)=O)[C@]5(CC)C=CCN6CC[C@]43[C@@H]65)C2)C1` [vincristine], the “retention of vincristine (percent initial vincristine-to-lipid weight ratio in the blood)” value in series [4] (DSPC/DSPE-PEG2000 (95:5 mole ratio) liposomes, internal citrate 300 mOsm/kg (150 mM) compared to 600 mOsm/kg (300 mM)) is on record as “significantly enhanced”; in series [4] (DSPC/cholesterol (55:45 mole ratio) liposomes, 150 mM vs 300 mM internal citrate) it was “independent of the osmolarity of the intraliposomal solution”. Turning to `CC(=O)[C@]1(O)Cc2c(O)c3c(c(O)c2[C@@H](O[C@H]2C[C@H](N)[C@H](O)[C@H](C)O2)C1)C(=O)c1ccccc1C3=O` [idarubicin], the “idarubicin retention (idarubicin-to-lipid mole ratio in the blood)” value in series [5] is “significantly decreased”. Turning to `O=c1[nH]c(=O)n([C@H]2C[C@H](O)[C@@H](CO)O2)cc1F` [FUDR, Floxuridine], the “FUDR retention (FUDR levels remaining in the blood)” value in series [6] was “optimally retained”.
